According to PubChem BioAssay AID256 (DTP/NCI, 2004):
“And” between values parts separate entries of the source, which are not always exact repeats. Equal entries are not always repeated. Inconclusive results and toxic doses are left out. Rule for the calls: active = survival T/C of 150% or more; inactive = T/C below 125% in these data. Non-standard residues stand in square brackets, D forms with d. Residues, ends and D or L forms follow the SMILES beside them. ξ: configuration not given here. *: point of attachment. ξAsp(βξ-Me) = CC(C(=O)O)C(N)C(=O)O; X5 = CC(N*)C1NC(=O)C2CCCCN2C1=O; ξAbu(3ξ-NH2) = CC(N)C(N)C(=O)O; X4 = CCC(C)CCC/C=C/CC(=O)*

Tested on: CD2F1 mice, L1210 leukemia ip, survival T/C
Assay: NCI In Vivo Anticancer Drug Screen. Data for tumor model L1210 Leukemia (intraperitoneal) in CD2F1 (CDF1) mice
Conditions: higher = longer survival
Procedure, shortened: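 Compound-dosed mice with transplantable tumor versus matched vehicle controls; endpoint ratio T/C reported.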

[1] = endpoint: mean survival time, dose: 12.5 mg/kg/injection, schedule: Q01DX009 (ip), vehicle: saline with Tween-80
[2] = endpoint: mean survival time, dose: 25.0 mg/kg/injection, schedule: Q01DX009 (ip), vehicle: saline with Tween-80
[3] = endpoint: mean survival time, dose: 50.0 mg/kg/injection, schedule: Q01DX009 (ip), vehicle: saline with Tween-80

Measured: T/C

COc1cc2c[n+](C)c3c4cc5c(cc4ccc3c2cc1OC)OCO5
inactive: endpoint: mean survival time, dose: 1.0 mg/kg/injection, schedule: Q01DX009 (ip), vehicle: other 104 % of control | endpoint: mean survival time, dose: 1.0 mg/kg/injection, schedule: Q01DX009 (ip), vehicle: water 102 % of control and 104 % of control | endpoint: mean survival time, dose: 2.0 mg/kg/injection, schedule: Q01DX009 (ip), vehicle: other 109 % of control | endpoint: mean survival time, dose: 2.0 mg/kg/injection, schedule: Q01DX009 (ip), vehicle: water 117 % of control and 112 % of control | endpoint: mean survival time, dose: 4.0 mg/kg/injection, schedule: Q01DX009 (ip), vehicle: other 104 % of control | endpoint: mean survival time, dose: 4.0 mg/kg/injection, schedule: Q01DX009 (ip), vehicle: water 116 % of control and 120 % of control | endpoint: mean survival time, dose: 6.25 mg/kg/injection, schedule: Q01DX009 (ip), vehicle: saline with Tween-80 120 % of control | endpoint: mean survival time, dose: 8.0 mg/kg/injection, schedule: Q01DX009 (ip), vehicle: other 115 % of control | endpoint: mean survival time, dose: 8.0 mg/kg/injection, schedule: Q01DX009 (ip), vehicle: water 115 % of control and 121 % of control | endpoint: mean survival time, dose: 8.0 mg/kg/injection, schedule: Q04DX003 (ip), vehicle: water 108 % of control | [1] 114 % of control | endpoint: mean survival time, dose: 16.0 mg/kg/injection, schedule: Q01DX009 (ip), vehicle: other 116 % of control | endpoint: mean survival time, dose: 16.0 mg/kg/injection, schedule: Q01DX009 (ip), vehicle: water 118 % of control and 120 % of control | endpoint: mean survival time, dose: 16.0 mg/kg/injection, schedule: Q04DX003 (ip), vehicle: water 117 % of control | [2] 104 % of control | endpoint: mean survival time, dose: 32.0 mg/kg/injection, schedule: Q04DX003 (ip), vehicle: water 120 % of control | endpoint: mean survival time, dose: 40.0 mg/kg/injection, schedule: Q01DX009 (ip), vehicle: water 115 % of control and 116 % of control | [3] 98 % of control | endpoint: mean survival time, dose: 64.0 mg/kg/injection, schedule: Q04DX003 (ip), vehicle: water 121 % of control | endpoint: mean survival time, dose: 80.0 mg/kg/injection, schedule: Q01DX009 (ip), vehicle: water 103 % of control | endpoint: mean survival time, dose: 128.0 mg/kg/injection, schedule: Q04DX003 (ip), vehicle: water 101 % of control

CCC(=O)c1ccc2c(c1)N(C(C)CN(C)C)c1ccccc1S2 (configuration not stated)
inactive: endpoint: mean survival time, dose: 25.0 mg/kg/injection, schedule: Q04DX003 (ip), vehicle: saline 97 % of control | endpoint: mean survival time, dose: 50.0 mg/kg/injection, schedule: Q04DX003 (ip), vehicle: saline 97 % of control | endpoint: mean survival time, dose: 100.0 mg/kg/injection, schedule: Q04DX003 (ip), vehicle: saline 101 % of control

CC(N)CCc1ccccc1 (configuration not stated)
inactive: [1] 102 % of control | [2] 100 % of control | [3] 102 % of control

O=CNc1cccc(Cl)c1
inactive: endpoint: mean survival time, dose: 100.0 mg/kg/injection, schedule: Q01DX009 (ip), vehicle: saline with Tween-80 96 % of control | endpoint: mean survival time, dose: 100.0 mg/kg/injection, schedule: Q04DX003 (ip), vehicle: saline with Tween-80 100 % of control | endpoint: mean survival time, dose: 200.0 mg/kg/injection, schedule: Q01DX009 (ip), vehicle: saline with Tween-80 95 % of control | endpoint: mean survival time, dose: 200.0 mg/kg/injection, schedule: Q04DX003 (ip), vehicle: saline with Tween-80 90 % of control | endpoint: mean survival time, dose: 400.0 mg/kg/injection, schedule: Q01DX009 (ip), vehicle: saline with Tween-80 96 % of control | endpoint: mean survival time, dose: 400.0 mg/kg/injection, schedule: Q04DX003 (ip), vehicle: saline with Tween-80 90 % of control

Cc1cn(C2CC(O)C(CO)O2)c(=O)nc1NCc1ccco1 (configuration not stated)
inactive: endpoint: median survival time, dose: 12.5 mg/kg/injection, schedule: Q01DX005 (ip), vehicle: water 103 % of control | endpoint: median survival time, dose: 25.0 mg/kg/injection, schedule: Q01DX005 (ip), vehicle: water 103 % of control | endpoint: median survival time, dose: 50.0 mg/kg/injection, schedule: Q01DX005 (ip), vehicle: water 104 % of control | endpoint: median survival time, dose: 100.0 mg/kg/injection, schedule: Q01DX005 (ip), vehicle: water 105 % of control | endpoint: median survival time, dose: 200.0 mg/kg/injection, schedule: Q01DX005 (ip), vehicle: water 102 % of control

CCC(C)CCC/C=C/CC(=O)NC(CC(=O)O)C(=O)NC(C(=O)NC(CC(=O)O)C(=O)NCC(=O)NC(CC(=O)O)C(=O)NCC(=O)NC(C(=O)NC(C(=O)N1CCCC1C(=O)NC(C)C1NC(=O)C2CCCCN2C1=O)C(C)C)C(C)N)C(C)C(=O)O (stereo not drawn) (X4-D[ξAsp(βξ-Me)]DGDG[ξAbu(3ξ-NH2)]VP-X5; configuration not given here)
inactive: endpoint: mean survival time, dose: 100.0 mg/kg/injection, schedule: Q01DX009 (ip), vehicle: saline + alcohol 93 % of control | endpoint: mean survival time, dose: 200.0 mg/kg/injection, schedule: Q01DX009 (ip), vehicle: saline + alcohol 87 % of control

CC[C@@H](C)[C@@H]1NC(=O)C(NC(=O)C(CC(C)C)N(C)C(=O)C2CCCN2C(=O)C(C)O)C(C)OC(=O)C(Cc2ccc(OC)cc2)N(C)C(=O)C2CCCN2C(=O)C(CC(C)C)NC(=O)C(C)C(=O)C(C(C)C)OC(=O)C[C@H]1O (some centres not stated)
inactive: endpoint: median survival time, dose: 10.0 micrograms/kg/injection, schedule: Q01DX009 (ip), vehicle: distilled water + alcohol 104 % of control | endpoint: median survival time, dose: 25.0 micrograms/kg/injection, schedule: Q01DX009 (ip), vehicle: distilled water + alcohol 111 % of control | endpoint: median survival time, dose: 40.0 micrograms/kg/injection, schedule: Q01DX009 (ip), vehicle: distilled water + alcohol 104 % of control | endpoint: median survival time, dose: 50.0 micrograms/kg/injection, schedule: Q01DX009 (ip), vehicle: distilled water + alcohol 111 % of control | endpoint: median survival time, dose: 80.0 micrograms/kg/injection, schedule: Q01DX009 (ip), vehicle: distilled water + alcohol 112 % of control | endpoint: median survival time, dose: 100.0 micrograms/kg/injection, schedule: Q01DX009 (ip), vehicle: distilled water + alcohol 121 % of control | endpoint: median survival time, dose: 160.0 micrograms/kg/injection, schedule: Q01DX009 (ip), vehicle: distilled water + alcohol 112 % of control
